# Assay results as given in US20070265451A1, “Process for the preparation of oxazolidinones and method of use thereof” (Board of Trustees of Michigan State University, priority 2001, published 2007).
# Tests used:
# [1] = tested on: Staphylococcus aureus 29213; test: Broth microdilution MIC, Staphylococcus aureus ATCC 29213; assay type: cell-based; settings: for MIC: Staphylococcus aureus, ATCC29213, Table 2, read-out: MIC(90-100) SA-ATCC 29213; for MIC(90-100) SA-ATCC 29213: Table 2
# Description: See, NCCLS document M7-A5. Methods for Dilution Antimicrobial Susceptibility Tests for Bacteria That Grow Aerobically; Approved Standard-Fifth Edition. Volume 20, Number 2. January 2000, (ISBN 1-56238-394-9) and Lorian V. Antibiotics. Laboratory Medicine. 4th ed. Baltimore: Williams and Wilkins, pp. 52-111 (1996). For subsequent testing, the following strains have been used: Staphylococcus aureus NRS4 (992; HIP5836; New Jersey) (Smith et al., New Engl. J. Med. 340: 493-501 (1999); Tenover et al., J. Clin. Microbiol. 36: 1020-1027 (1998)), Staphylococcus aureus NRS3 (963sm; HIP5827; Michigan) (Smith et al., ibid.; Tenover et al., ibid.), Staphylococcus aureus NRS103 (Becker) (Karakawa and Vann, Sem. Infect. Dis. 4: 285 (1982), Staphylococcus aureus NRS102 (Reynolds) Karakawa and Vann, ibid; McMurray et al., JID 162: 759-762 (1990)), Staphylococcus epidermidis NRS101 (ATCC 35984), Streptococcus pneumoniae (ATCC 49619), Enterococcus faecalis (ATCC 51299), and Staphylococcus aureus (ATCC 43300.
# Stock cultures of these strains were obtained by seeding colonies from overnight streak plates (Tryptic Soy Agar II (TSAII) and 5% sheep's blood (SB) agar plates: Becton Dickinson, CA#2211261) into sterile Mueller-Hinton Broth (MHB)(Becton Dickinson, CA#211443) and growing the suspensions to mid-late log phase in 13 mL screw-cap tubes. Glycerol (Sigma, CA#G-6279) was sterilized by autoclaving for 15 minutes at 121° C. in 6 mL volumes, and then stored at 2-8° C. This was diluted to 20% in dH2O, and then added 1:1 (250 μL:250 μL, 10% final glycerol concentration) to the logarithmically growing bacterial suspension of each strain. Tubes were frozen and stored at −70° C. Purity of the stock cultures was tested by thawing one tube of each strain in a water bath at 37° C. and plating them on TSAII with 5% SB. Plates were incubated overnight at 37° C. and colonies were examined for morphology. Growth curves and approximate CFU/mL were also obtained.
# High purity substituted oxazolidinones prepared according to the method of the present invention and a ZYVOX standard (ZYVOX is a trade name for linezolid available from Pharmacia Corporation) were provided by Synthon Corporation, Monmouth Junction, N.J. Compounds were dissolved at 10 mg/mL in DMSO, as after a dilution of approx. 39.0 to reach the desired final starting concentration of 256 ug/ml, the concentration of DMSO is approximately 2.5%. Compounds were then stored at room temperature (25° C.) in the dark.
# Antimicrobial susceptibility screening was as follows. All compounds were initially screened for activity in duplicate at 256 μg/mL (2.5% DMSO), including ZYVOX, the positive control for antimicrobial activity. A single well of bacterially inoculated 2.5% DMSO served as a positive control for bacterial growth, while a well of DMSO inoculated with of 50 μL of sterile 0.9% saline served as a negative growth control. Controls were prepared on every microplate, so that 46 was the maximum number of compounds that were screened per plate. Broth was pipetted into sterile microcentrifuge tubes, to which the compounds were then added (1:19.53 dilution or 2× final concentration). Each tube was vortexed, and 50 μL was immediately transferred to the microplate wells for each strain. Solubility was assessed by visual observation. MB (medium broth solubility) was recorded if the solution appeared only slightly cloudy. LB (low broth solubility) was recorded if the solution was extremely cloudy, and especially if larger, clumpy precipitates formed. Bacteria were grown as described above, although absorbance was measured at 650 nm and bacteria were diluted to an initial OD of 0.12-0.15. Bacteria were then further diluted 1:100 with 0.9% sterile saline. Within 15 minutes of this final dilution, 50 μL of this suspension was added to each well for a final volume of […], and a final bacterial concentration of 1×10^5 CFU/mL (except for the negative control well). Plates were grown as above and all observations were recorded. […]
# [2] = tested on: Enterococcus faecalis 29212; test: Broth microdilution MIC, Enterococcus faecalis ATCC 29212; assay type: cell-based; settings: for MIC: Enterococcus faecalis, ATCC29212, Table 2, read-out: MIC(90-100) EF-ATCC 29212; for MIC(90-100) EF-ATCC 29212: Table 2
Structure (SMILES),MIC [1] [µg/mL],further results
CC#CCN1CC(COS(=O)(=O)c2ccc([N+](=O)[O-])cc2)OC1=O (stereo not shown) [Compound 110],31.3,
C#CCN1CC(COS(=O)(=O)c2ccc([N+](=O)[O-])cc2)OC1=O (stereo not shown) [Compound 236],31.3,
O=C1O[C@H](COS(=O)(=O)c2ccc([N+](=O)[O-])cc2)CN1C(=O)C1CC1 [Compound 250],250,
COc1ccc(C(=O)CN2CC(COS(=O)(=O)c3ccc(Cl)c4nonc34)OC2=O)cc1 (stereo not shown) [Compound 254],125,
O=C(CN1C[C@@H](COS(=O)(=O)c2ccc(Cl)c3nonc23)OC1=O)C1CC1 [Compound 260],250,
CCC#CCN1CC(COS(=O)(=O)c2ccc(Cl)c3nonc23)OC1=O (stereo not shown) [Compound 276],125,MIC [2]: 250 µg/mL
CCCCN1CC(COS(=O)(=O)c2ccc(Cl)c3nonc23)OC1=O (stereo not shown) [Compound 285],,MIC(90-100) EF-ATCC 29212 [2]: 250 µg/mL; MIC(90-100) SA-ATCC 29213 [1]: 62.5 µg/mL
CCOC(=O)CC(C)(C)C(=O)CN1C[C@@H](COS(=O)(=O)c2ccc(Cl)c3nonc23)OC1=O [Compound 291],250,
CCC#CCN1CC(COS(=O)(=O)c2ccc([N+](=O)[O-])cc2)OC1=O (stereo not shown) [Compound 294],31.3,MIC [2]: 250 µg/mL
COc1cccc(CN2CC(COS(=O)(=O)c3ccc(Cl)c4nonc34)OC2=O)c1 (stereo not shown) [Compound 323],250,MIC [2]: 125 µg/mL
CCOC(=O)/C=C/N1CC(COS(=O)(=O)C2=CC=C([N+](=O)[O-])CC2)OC1=O (stereo not shown) [Compound 388],125,
O=C(CN1CC(COS(=O)(=O)c2ccc(Cl)c3nonc23)OC1=O)c1ccc(F)cc1 (stereo not shown) [Compound 401],,MIC(90-100) EF-ATCC 29212 [2]: 62.5 µg/mL; MIC(90-100) SA-ATCC 29213 [1]: 250 µg/mL
CC(C)(C)CC(=O)CN1C[C@@H](COS(=O)(=O)c2ccc([N+](=O)[O-])cc2)OC1=O [Compound 533],125,
COC(=O)CN1C[C@@H](COS(=O)(=O)c2ccc([N+](=O)[O-])cc2)OC1=O [Compound 669],62.5,
COC(=O)CN1C[C@@H](COS(=O)(=O)c2ccc(Cl)c3nonc23)OC1=O [Compound 674],250,MIC [2]: 125 µg/mL

# The next lines start with results.
MIC [1] [µg/mL],Structure (SMILES),further results
250,"CC(C)(C)C(=O)CN1C[C@@H](COS(=O)(=O)c2ccc(Cl)c3nonc23)OC1=O [Compound 34, (S)-3-(3,3-dimethyl-2-butone)-5-(7-chloro-2,1,3-benzoxadiazole-4-sulfonyloxymethyl)-2-oxazolidinone]",
62.5,C=CCN1CC(COS(=O)(=O)c2ccc([N+](=O)[O-])cc2)OC1=O (stereo not shown) [Compound 108],
62.5,C#CCN1CC(COS(=O)(=O)c2ccc(Cl)c3nonc23)OC1=O (stereo not shown) [Compound 235],
62.5,C=CCN1CC(COS(=O)(=O)c2ccc(Cl)c3nonc23)OC1=O (stereo not shown) [Compound 255],MIC [2]: 250 µg/mL
15.6,CN1CC(COS(=O)(=O)c2ccc([N+](=O)[O-])cc2)OC1=O (stereo not shown) [Compound 266],
250,CC(C)(C)C(=O)CCN1C[C@@H](COS(=O)(=O)c2ccc([N+](=O)[O-])cc2)OC1=O [Compound 272],
62.5,COc1ccc(C(=O)CN2CC(COS(=O)(=O)c3sc(NC(C)=O)nc3C)OC2=O)c(OC)c1 (stereo not shown) [Compound 324],MIC [2]: 250 µg/mL
62.5,O=C1O[C@H](COS(=O)(=O)c2ccc([N+](=O)[O-])cc2)CN1C(=O)c1ccco1 [Compound 334],
250,O=C(CN1CC(COS(=O)(=O)c2ccc(Cl)c3nonc23)OC1=O)c1ccc(F)cc1 (stereo not shown) [Compound 369],MIC [2]: 31.3 µg/mL
125,O=C(CN1C[C@@H](COS(=O)(=O)c2ccc([N+](=O)[O-])cc2)OC1=O)N1CCOCC1 [Compound 589],
